Assay results as given in paper PMC6630470, “Anomeric Spironucleosides of β-D-Glucopyranosyl Uracil as Potential Inhibitors of Glycogen Phosphorylase” (Molecules, 2019).

Biological target: T1, rabbit muscle glycogen phosphorylase b (RMGPb) (Oryctolagus cuniculus, UniProt P00489)
T1 construct: gene PYGM
T1 sequence (P00489 2-843): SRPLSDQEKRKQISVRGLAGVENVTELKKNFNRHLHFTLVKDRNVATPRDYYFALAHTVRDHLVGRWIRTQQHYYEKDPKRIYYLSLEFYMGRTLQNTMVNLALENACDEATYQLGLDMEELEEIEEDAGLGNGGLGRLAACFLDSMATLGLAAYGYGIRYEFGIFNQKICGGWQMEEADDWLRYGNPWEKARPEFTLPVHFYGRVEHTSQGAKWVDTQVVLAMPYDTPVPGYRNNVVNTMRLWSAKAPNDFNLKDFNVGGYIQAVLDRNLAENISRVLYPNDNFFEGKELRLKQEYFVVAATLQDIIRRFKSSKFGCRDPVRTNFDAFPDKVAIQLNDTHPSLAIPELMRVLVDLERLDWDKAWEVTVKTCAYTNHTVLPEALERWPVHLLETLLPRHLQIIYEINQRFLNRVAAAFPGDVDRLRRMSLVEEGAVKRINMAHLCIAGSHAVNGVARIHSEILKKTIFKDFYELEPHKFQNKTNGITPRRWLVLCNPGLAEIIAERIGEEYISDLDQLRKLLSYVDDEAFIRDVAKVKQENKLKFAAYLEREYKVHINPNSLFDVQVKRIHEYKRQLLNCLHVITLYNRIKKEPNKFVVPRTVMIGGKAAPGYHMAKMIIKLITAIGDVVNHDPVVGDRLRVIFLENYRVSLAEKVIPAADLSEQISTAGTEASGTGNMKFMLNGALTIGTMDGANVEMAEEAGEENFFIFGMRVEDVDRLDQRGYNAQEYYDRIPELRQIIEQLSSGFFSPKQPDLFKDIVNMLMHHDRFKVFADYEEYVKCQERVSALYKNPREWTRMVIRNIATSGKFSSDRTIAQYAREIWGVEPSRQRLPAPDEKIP
Test: enzyme kinetics in the direction of glycogen synthesis with purified, recrystallized RMGPb ([…] AMP, […] glycogen)
Format: biochemical
Settings: read-out: % inhibition at 1 mM

inhibition at 1000 µM	Structure (SMILES)
26%	O=c1cc2n(c(=O)[nH]1)[C@]1(OC2)O[C@H](CO)[C@@H](O)[C@H](O)[C@H]1O [4a, (3R,3′R,4′S,5′S,6′R)-3′,4′,5′-Trihydroxy-6′-(hydroxymethyl)-3′,4′,5′,6′-tetrahydrospiro[oxazolo[3,4-c]pyrimidine-3,2′-pyran]-5,7(1H,6H)-dione]
35%	O=c1cc2n(c(=O)[nH]1)[C@@]1(OC2)O[C@H](CO)[C@@H](O)[C@H](O)[C@H]1O [4b, (3S,3′R,4′S,5′S,6′R)-3′,4′,5′-Trihydroxy-6′-(hydroxymethyl)-3′,4′,5′,6′-tetrahydrospiro[oxazolo[3,4-c]pyrimidine-3,2′-pyran]-5,7(1H,6H)-dione]
